Results reported in article PMC11748689, “Pharmacological and structural understanding of the Trypanosoma cruzi proteasome provides key insights for developing site-specific inhibitors” (The Journal of Biological Chemistry, 2024).

Experiments:
[1] = target: recombinant WT T. cruzi proteasome (caspase-like activity, β1) (Trypanosoma cruzi, UniProt V5BHX1); experiment: Caspase-like activity assay (Proteasome-Glo), recombinant wild-type T. cruzi proteasome; type: biochemical
Protocol: (§1) Chymotrypsin-, trypsin-, and caspase-like activity assays were performed using a commercially available Proteasome-Glo 3-substrate system assay kit (catalog number G8532) (Promega Corporation) according to the manufacturers protocols and as previously described ([24]).
(§2) Prior to running assays, Proteasome-Glo buffer was used to reconstitute the luciferin detection reagent (containing a recombinant thermostable luciferase enzyme). The resuspended luciferin detection reagent was then mixed with Proteasome-Glo chymotrypsin-, trypsin- or caspase-like substrates (either 40 μM suc-Leu-Leu-Val-Tyr-aminoluciferin, 30 μM Z-Leu-Arg-Arg-aminoluciferin (Z is benzyloxycarbonyl) or 40 μM Z-Nle-Pro-Nle-Asp-aminoluciferin respectively (these concentrations represent 2x final assay concentrations)). These substrate mixtures were allowed to incubate at room temperature for 60 min prior to use to allow the removal of any contaminating free aminoluciferin.
(§3) When proteasome inhibitors were to be screened in the chymotrypsin, trypsin, and caspase assays, test compounds were dispensed into assay wells using an ECHO 550 acoustic dispenser (Labcyte) (final DMSO concentration 1%). Compounds were tested in either a 10-point concentration series (30 μM top final assay concentration, 1 in 3 dilution series) or a 12-point concentration series (30 μM top final assay concentration, 1 in 2.5 dilution series).
(§4) Proteasome assays were then performed as described above using Promega Proteasome-Glo 3-substrate system assay kit. […] Diluted proteasome (4 μl) was added to assay plates using an electronic multichannel pipette (Integra Biosciences Ltd) and the proteasome incubated with compound for 60 min at room temperature.
(§5) Following the 60 min incubation of proteasome and compounds, assays were initiated with the addition of 4 μl of a substrate mix (containing substrate and the luciferin detection reagent) using an electronic multichannel pipette. Final assay concentrations of substrates used were either 20 μM Suc-Leu-Leu-Val-Tyr-aminoluciferin, 15 μM Z-Leu-Arg-Arg-aminoluciferin, or 20 μM Z-Nle-Pro-Nle-Asp-aminoluciferin for chymotrypsin-, trypsin-, or caspase-like activity, respectively. Following a further 60 min assay incubation, luminescence was read using an EnVision 2102 Multilabel Reader (PerkinElmer, Inc) with 0.2 s per well reading time.
(§6) All data processing was performed using Microsoft Excel for Microsoft 365 software.
(§7) Nonlinear dose-response curve fitting was carried out using the Microsoft Excel add-in, XLfit (IDBS). Percentage inhibition data were either fitted to a standard 4-parameter logistic fit model (XLfit model 205; Equation 2) or a biphasic model (either XLfit model 300; Equation 3 or a custom biphasic model; Equation 4 (used in cases where the top and/or bottom parameters deviated from 100%/0% inhibition)).(2) y=A+(B−A)/1+(C/x)^D Where A = % inhibition at bottom, B = % inhibition at top, C = IC50, D = slope, x = inhibitor concentration and y = % inhibition.(3) y=(A/(1+10^(C−log(x))∗B))+((100−A)/(1+10^(D−log(x))∗B)) With A = % inhibition at midplateau, B = slope, C = log(IC50^A), D = log(IC50^B)).
(§8) All IC50 data generated were converted to pIC50 using Equation 5.

[2] = target: native T. cruzi proteasome (caspase-like activity, β1) (Trypanosoma cruzi, UniProt V5BHX1); experiment: Caspase-like activity assay (Proteasome-Glo), native T. cruzi proteasome; type: biochemical; conditions: mean ± SD, N = 3; for IC50: read-out: pIC50, Caspase Assay, Native (converted)
Protocol: as §1, §2, §3, §4, §5, §6, §7, §8

[3] = target: recombinant β4^R mutant T. cruzi proteasome (caspase-like activity) (Trypanosoma cruzi, UniProt V5BHX1); experiment: Caspase-like activity assay (Proteasome-Glo), recombinant β4^R mutant T. cruzi proteasome; type: biochemical
Protocol: (§9) Point mutations were created in individual subunits using overlapping PCR from the original templates using Polh and Tn7L primers outside the genes and suitable internal primers to introduce selected mutations. For Δβ1Δβ2, β1 Thr 55, and β2 Thr 67 were both mutated to Ala, the β4^R mutant was produced by mutating Phe 24 and Ile 29 to Leu and Met respectively in β4 subunit.
as §1, §2
(§10) Proteasome assays were carried out using 384-well, white, low-volume plates (catalog number 784904) (Greiner Bio-One) at room temperature (∼23 °C) in 8 μl reaction volumes. When activity checks were to be run in the presence or absence of a fixed concentration of proteasome inhibitor, 80 nL of the inhibitor (at a concentration 100x the required final assay concentration), or 80 nL dimethylsulfoxide (DMSO), were dispensed into assay plates using an Echo 550 acoustic dispenser (Labcyte).
(§11) A 1 in 2 dilution series of the various T. cruzi proteasome samples (native, recombinant WT, β4^R mutant, and Δβ1Δβ2 mutant) were produced in assay buffer (50 mM Tris–HCl, pH 7.5, 10 mM sucrose, 5 mM MgCl2, 1 mM DTT, 2 mM ATP, 150 mM NaCl, 1 mM EDTA, and 0.05 mg/ml bovine serum albumin). Subsequently, 4 μl of the various concentrations of diluted proteasome were added to assay plates using an electronic multichannel pipette (Integra Biosciences Ltd). When kinetic read activity checks were performed (Fig. 2), proteasome final assay concentrations used were 115 μg/ml, 115 μg/ml, and 230 μg/ml native proteasome (in the chymotrypsin, trypsin, and caspase assays, respectively), and 4.1 μg/ml, 3.4 μg/ml, or 1.4 μg/ml recombinant WT proteasome (in the chymotrypsin, trypsin, and caspase assays, respectively). When activity checks were to be run in the presence or absence of a proteasome inhibitor plates containing inhibitor or DMSO control were incubated with the relevant proteasome sample for 60 min at room temperature (this step was not included in activity check experiments where compounds were not used).
(§12) Following the 60 min incubation of proteasome and compound (if required), assays were initiated with the addition of 4 μl of substrate mix (containing substrate and the luciferin detection reagent) using an electronic multichannel pipette. Final assay concentrations of substrates used were either 20 μM Suc-Leu-Leu-Val-Tyr-aminoluciferin, 15 μM Z-Leu-Arg-Arg-aminoluciferin, or 20 μM Z-Nle-Pro-Nle-Asp-aminoluciferin for chymotrypsin-, trypsin- or caspase-like activity respectively.
(§13) Luminescence was read either kinetically or as an endpoint read using an EnVision 2102 Multilabel Reader (PerkinElmer, Inc) with 0.2 s per well reading time. When kinetic assays were run, luminescence was read every 5 min for 90 min. Endpoint assays were run for 60 min before luminescence was read. All data processing and linear fit analyses were performed using Microsoft Excel for Microsoft 365 software (Redmond, Washington; https://www.microsoft.com/).

[4] = target: recombinant WT T. cruzi proteasome (chymotrypsin-like activity, β5) (Trypanosoma cruzi, UniProt V5BU39+V5C017); experiment: biochemical; type: biochemical; conditions: for maximum % inhibition plateau, Chymotrypsin Assay, Wild-type: mean ± SD, N = 3 (N = 2 for DDD02091966), (a) mid-point plateau from biphasic curve fits
Protocol: as §1, §2, §10, §11, §12, §13, §3

[5] = target: recombinant β4^R mutant T. cruzi proteasome (trypsin-like activity) (Trypanosoma cruzi, UniProt V5BCU3); type: biochemical; conditions: mean ± SD, N = 3
Protocol: as §9, §1, §2, §10, §11, §12, §13

[6] = target: native T. cruzi proteasome (trypsin-like activity, β2) (Trypanosoma cruzi, UniProt V5BCU3); experiment: Trypsin-like activity assay (Proteasome-Glo), native T. cruzi proteasome; type: biochemical; conditions: mean ± SD, N = 3; for IC50: read-out: pIC50, Trypsin Assay, Native (converted)
Protocol: as §1, §2, §3, §4, §5, §6, §7, §8

[7] = target: recombinant WT T. cruzi proteasome (trypsin-like activity, β2) (Trypanosoma cruzi, UniProt V5BCU3); experiment: biochemical; type: biochemical; conditions: mean ± SD, N = 3; for IC50: read-out: pIC50, Trypsin Assay, Wild-type (converted)
Protocol: as §1, §2, §3, §4, §5, §6, §7, §8

[8] = system: intracellular T. cruzi Silvio X10/7 A1 amastigotes; experiment: Intracellular T. cruzi assay; type: cell-based; conditions: Trypanosoma cruzi; 96 h compound treatment, Vero host cells; given as [mean pEC50, SD, N]; read-out: Mean pEC50 against intracellular T. cruzi parasites (converted)
Protocol: Potency against intracellular T. cruzi Silvio X10/7 A1 amastigotes was determined as described previously ([53]), with a sole modification that the compound treatment duration was 96 h instead of 72 h. Vero host cells were obtained from The European Collection of Authenticated Cell Cultures (cat. number 84113001) and tested for mycoplasma (negative). T. cruzi Silvio X10/7 A1 was obtained from Prof. Alan Fairlamb, and discrete typing unit confirmed by genotyping ([53]).

[9] = target: recombinant Δβ1Δβ2 mutant T. cruzi proteasome (chymotrypsin-like activity) (Trypanosoma cruzi, UniProt V5BU39+V5C017); experiment: biochemical; type: biochemical
Protocol: as §9, §1, §2, §10, §11, §12, §13

[10] = target: recombinant β4^R mutant T. cruzi proteasome (chymotrypsin-like activity) (Trypanosoma cruzi, UniProt V5BU39+V5C017, F24L/I29M); experiment: biochemical; type: biochemical
Protocol: as §9, §1, §2, §10, §11, §12, §13

[11] = target: native T. cruzi proteasome (chymotrypsin-like activity, β5) (Trypanosoma cruzi, UniProt V5BU39+V5C017); experiment: Chymotrypsin-like activity assay (Proteasome-Glo), native T. cruzi proteasome; type: biochemical
Protocol: as §1, §2, §3, §4, §5, §6, §7, §8

Structure (SMILES) | IC50 [1] [µM] | IC50 [2] [µM] | IC50 [3] [µM] | IC50 [4] [µM] | maximum % inhibition plateau, Chymotrypsin Assay, Wild-type [4] [%] | pIC50, Trypsin Assay, β4^R mutant [5] | IC50 [6] [µM] | IC50 [7] [µM] | EC50 [8] [µM] | IC50 [9] [µM] | IC50 [10] [µM] | IC50 [11] [µM] | further results
CC(C)C[C@H](NC(=O)[C@H](Cc1ccccc1)NC(=O)c1cnccn1)B(O)O [Bortezomib] | 0.0724 | 0.0724 | 0.0933 |  |  |  |  |  |  |  |  |  | 
O=C(Nc1ccc(F)c(-c2cn3nc(N4CCOCC4)cnc3n2)c1)N1CCCC1 [DDD01012247] | > 30.2 | > 30.2 | > 30.2 | 0.0162 | 68.9 ± 3.5 | <4.52 | > 30.2 | > 30.2 | 0.126 | 0.0195 | 6.92 | 0.012 | 
CNC(=O)c1cc(NC(=O)c2ccc(=O)n(Cc3ccc(OC)cc3)n2)ccc1F [DDD02097487] | > 30.2 | > 30.2 | > 30.2 | 0.178 | 48.2 ± 3.6 | <4.52 | > 30.2 | > 30.2 | 0.794 | 0.155 | > 30.2 | 0.12 | extent of inhibition in chymotrypsin dose-response curve, Δβ1Δβ2 mutant ([9]; top of dose-response curve): unable to fully inhibit
CC[C@H](C)[C@H](NC(=O)[C@H]([C@@H](C)CC)N(C)C(C)=O)C(=O)N[C@H](C(=O)N[C@@H](CC(C)C)C(=O)[C@@]1(C)CO1)[C@@H](C)O [Epoxomicin, reference compound] |  |  |  |  | 96.1 ± 3.0 | 6.11 ± 0.06 |  |  |  |  |  |  | pIC50, Chymotrypsin Assay, Wild-type [4]: 7.40 ± 0.17; pIC50, Trypsin Assay, Native [6]: 6.08 ± 0.00; pIC50, Caspase Assay, Wild-type ([1]; mean ± SD, N = 3): 5.97 ± 0.03; pIC50, Trypsin Assay, Wild-type [7]: 6.09 ± 0.04; pIC50, Caspase Assay, Native [2]: 5.99 ± 0.01; pIC50, Caspase Assay, β4^R mutant ([3]; mean ± SD, N = 3): 5.88 ± 0.03; maximum % inhibition plateau, Chymotrypsin Assay, Δβ1Δβ2 mutant ([9]; mean ± SD, N = 3): 100.1 ± 0.5%; pIC50, Chymotrypsin Assay, Δβ1Δβ2 mutant ([9]; mean ± SD, N = 3): 7.44 ± 0.03; pIC50, Chymotrypsin Assay, β4^R mutant ([10]; mean ± SD, N = 3, biphasic curves (a): pIC50 of most potent curve): 7.33 ± 0.15; pIC50, Chymotrypsin Assay, Native ([11]; mean ± SD, N = 3, biphasic curves (a): pIC50 of most potent curve, 60 min preincubation): 7.50 ± 0.12
